Patent publication US20040265350A1, “Use of a porous carrier” (priority 2000, published 2004)
“Also recorded” adds a separate entry of the source.

Legend:
osteoblast cells = details: 5 mM MTX; cited from earlier work
[1] = test system: human osteosarcoma like cells(HOS); test: MTT assay of cell proliferation, HOS cells; type: cell-based
Description: (§1) Two osteosarcoma cell lines and primary human osteoblasts were used in the cell culture studies of the effect of increased MTX concentration and duration time. The MG63 cells were obtained from a […] (ATCC-CRL-1427). The human osteosarcoma like cells(HOS) cells were obtained from a […] (ATCC-CRL-1543). The human osteoblast like cells(HOB) were isolated from patients undergoing total knee replacement. The cell lines were each cultured in complete Dulbecco's Modified Eagle's Medium (DMEM) (Gibco, UK) supplemented with 10% foetal calf serum (FCS) (Gibco, UK), non essential amino acids (1%), ascorbic acid (150˜g/ml), L glutamine (0.02M), HEPES (0.01M), penicillin (100 units/ml) and streptomycin (100˜g/ml), at 37° C. and 5% CO2 in a 99% humidified sterile atmosphere. The medium was changed at least twice a week to prevent nutrient depletion-and waste product accumulation.
(§2) Once the cells had become confluent, they were removed by emptying the medium, washing with 10 ml PBS and adding 5 ml of 0.25% Trypsin and incubating at 37° C. […] Next the cells were counted under a light microscope and concentrations of 13.2×10^4 cells/ml made up. […]
(§3) The effects of MTX on the proliferation of ostersarcoma cells was measured by MTT assay. […] The absorbance of each well was then read by a Dynatech microplate reader (BioRad Model 3550) at a wavelength of 595 nm and 5 sec mixing time. […]

osteosarcoma cells = details: 5 mM MTX; cited from earlier work
MG63 cells = test: MTT assay of cell proliferation, MG63 cells; type: cell-based, human
Description: as §1, §2, §3

[2] = Leaching of MTX from HA discs with or without PLG; type: physicochemical
Protocol: Initially the release of MTX from HA using the polymer PLG (75:25) was performed to establish whether this polymer {which is expected to degrade at a slower rate than PLG (50:50)} induced a slowed rate of release of MTX. HA discs from the second batch were used for the experiment and approximately the same quantities of MTX, PLG and acetonitrile were used. The experiment was labelled as follows; IA and IB were loaded by centrifugation and IB contains polymer, IC and ID were loaded by the vacuum technique and ID contains polymer. The following results-were obtained [formula]

[3] = test system: human osteoblast like cells(HOB); test: MTT assay of cell proliferation, HOB cells; type: cell-based
Description: as §1, §2, §3

[4] = Solubility seen while preparing loading solutions; type: physicochemical
Description: After drying the block in an oven overnight the vacuum method was again used to inject a solution of PLG (85:15) (0.105 g) in acetonitrile (50 cm^3). Again the block was oven dried overnight.

[5] = Leaching of Prednisolone from HA discs with or without PLG; type: physicochemical; details: presence of PLG (50:50)
Protocol: Serial dilution experiments were performed to obtain the following calibration chart and equation for Prednisolone. [formula]
Four HA discs from the second batch were used for these experiments. Approximately […] of Prednisolone was used in each of the acetonitrile solutions. The experiments were labelled 1AA, 1BB, 1CC and 1DD. 1M and 1BB were loaded by centrifugation and 1BB contained 0.1 g of PLG (50:50). 1CC and 1DD were loaded using the vacuum technique and 1DD contained 0.1 g of PLG (50:50). The standard leaching experiments were carried out and the results presented below. [formula]

[6] = Leaching of cis-platin from HA block into distilled water, absorbance at 206 nm; type: physicochemical
Protocol: No yellow colour was observed within the block.
Leaching experiments were carried out in distilled water (35 cm^3) with stirring, in the absence of light and closed to prevent evaporation. Absorbance was recorded at λ 206 nm at appropriate intervals and all caclulations required the extinction coefficient 3057 mol^−1 dm^3 cm^−1. [formula]

[7] = Leaching of [Fe(phen)3][ClO4]2 from HA blocks into distilled water, UV-Vis at 512 nm; type: physicochemical
Description: Leaching with stirring of solutions to avoid inaccuracies due to concentration gradients. (According to present arrangements however some anomalies may result from occasional jarring of the block by the magnetic follower).
Half of the block prepared in method 3 was immersed in distilled water (30 cm3) and the absorbance recorded by UV-Vis spectrometry at wavelength 512 nm. An extinction coefficient of 10,620 mol^−1 dm^3 cm^−1 was used in all calculations.
Vacuum method 3 was used for loading the compounds onto HA, again blocks of porosity 83.35% (0006) were used with approximate dimensions, 20×20×15mm, weight 3.6-3.8 g. […] […] Again the blocks were dried in the oven. (In order to fully dissolve the polymer in acetronitrile stirring for up to 1 hour is required before loading).
All leaching experiments were undertaken using the cut halves of the loaded blocks with distilled water (30 cm3) and constant stirring. […] This buoyancy is likely to be due to the polymer blocking pores in the HA trapping air inside the block. […] Again absorbance at λ 512 nm was recorded at appropriate intervals. [formula]

[8] = 1 day exposure, MTX 0.1 to 1000 μg/ml
[9] = 3 day exposure, same concentrations
[10] = block loaded with complex and PLG (50:50)

CN(Cc1cnc2nc(N)nc(N)c2n1)c1ccc(C(=O)N[C@@H](CCC(=O)O)C(=O)O)cc1 [MTX, Methotrexate]
decrease in proliferation of osteoblast cells (osteoblast cells): 30% | cell proliferation (MTT) [1, 8]: only a small decrease in proliferation | cell proliferation (MTT) [1, 9]: reduced level of cell proliferation compared with the 1 day exposure samples | decrease in proliferation of osteosarcoma cells (osteosarcoma cells): 90% | cell proliferation (MTT) (MG63 cells; MG63, 1 day exposure, MTX 0.1 to 1000 μg/ml): decrease in proliferation as MTX concentration rose | cell proliferation (MTT) (MG63 cells; MG63, 3 day exposure, rising MTX concentration): erratic behaviour; also recorded: affected only slightly | effect of PLG (50:50) on release of MTX from HA ([2]; presence of PLG (50:50), weighted discs): slower release rate | effect of PLG (75:25) on release of MTX from HA ([2]; presence of PLG (75:25)): does slow the release | cell proliferation (MTT) [3, 8]: decrease in proliferation as MTX concentration rose | cell proliferation (MTT) [3, 9]: reduced level of cell proliferation compared with the 1 day exposure samples; also recorded: affected to a similar degree to the HOS cells

C[C@]12C=CC(=O)C=C1CC[C@@H]1[C@@H]2[C@@H](O)C[C@@]2(C)[C@H]1CC[C@]2(O)C(=O)CO [Prednisolone]
solubility in acetonitrile ([4]; acetonitrile): dissolves | effect of polymer on release of Prednisolone from HA [5]: slowed

N.N.[Cl][Pt][Cl] [cis-platin]
time after which almost the entire drug / the majority is released from HA ([6]; no polymer, distilled water, stirring, dark): 45 min | effect of PLG on release of cis-platin from HA ([6]; presence of PLG (50:50)): slowed

Iron(II) Tris Phenanthrolin Perchlorate [[Fe(phen)3][ClO4]2]
time after which almost all complex is released from the block ([7]; block loaded by vacuum method 3 from methanol, no polymer, distilled water, stirring): 170 min | effect of PLG impregnation on release of complex [7, 10]: dramatically slows the release | time at which continuing release of complex is still observed [7, 10]: > 5 days | effect of PLG impregnation on release of complex ([7]; block loaded with complex and PLG (50:50), listed as Iron Tris Phen): significantly slows the release | time after which approximately all / the majority of complex is released ([7]; control block loaded from acetonitrile, no PLG): 300 min | further quantity released after solution replaced with distilled water ([7]; method 3 block, replaced after 330 minutes, read after a further 20 hours): 0.14 mg | release profile of complex from the block ([7]; no polymer): two phases; also recorded: initial burst

Poly(DL-Lactide-co-Glycolide) [PLG]
solubility in methanol [4]: not soluble | solubility in water [4]: not soluble
